system: Bmi-1; experiment: Sandwich ELISA Assay (Bmi-1 ELISA) in HT-1080 cells; type: cell-based
Summary of the method: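 HT-1080 cells exposed to compound in 0.5% final DMSO for 40-48 h at 37 °C, then lysed. Bmi-1 was quantified by sandwich ELISA: mouse monoclonal capture, rabbit anti-Bmi-1 detection, HRP anti-rabbit and TMB. Read at OD450 (OD570 reference) against a recombinant GST-Bmi-1 standard curve (0-8000 pg/mL).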

Compound | EC50 [nM]
Cc1nc2cc(F)c(F)cc2n1-c1nc(N)c(F)c(Nc2ccc(Cl)cc2)n1 [Cpd 215, N-(4-chlorophenyl)-2-(5,6-difluoro-2-methyl-1H-benzimidazol-1-yl)-5-fluoropyrimidine-4,6-diamine] | 100 to 3000
COCc1nc2ccccc2n1-c1nc(N)c(F)c(Nc2ccc(OC(F)F)cc2)n1 [Cpd 216, N-[4-(difluoromethoxy)phenyl]-5-fluoro-2-[2-(methoxymethyl)-1H-benzimidazol-1-yl]pyrimidine-4,6-diamine] | 10 to 100
COCc1nc2ccccc2n1-c1nc(N)c(F)c(Nc2ccc(C)cc2)n1 [Cpd 217, 5-fluoro-2-[2-(methoxymethyl)-1H-benzimidazol-1-yl]-N-(4-methylphenyl)pyrimidine-4,6-diamine] | 10 to 100
COCc1nc2ccccc2n1-c1nc(N)c(F)c(Nc2ccc(OC)cc2)n1 [Cpd 218, 5-fluoro-2-[2-(methoxymethyl)-1H-benzimidazol-1-yl]-N-(4-methoxyphenyl)pyrimidine-4,6-diamine] | 1 to 10
COCc1nc2ccccc2n1-c1nc(N)c(F)c(Nc2ccc(Cl)cc2)n1 [Cpd 219, N-(4-chlorophenyl)-5-fluoro-2-[2-(methoxymethyl)-1H-benzimidazol-1-yl]pyrimidine-4,6-diamine] | 100 to 3000
COCc1nc2ccccc2n1-c1nc(N)c(F)c(Nc2ccc(C(F)(F)F)cc2)n1 [Cpd 220, 5-fluoro-2-[2-(methoxymethyl)-1H-benzimidazol-1-yl]-N-[4-(trifluoromethyl)phenyl]pyrimidine-4,6-diamine] | 10 to 100
Cc1nc2ccccc2n1-c1nc(N)cc(Nc2ccc(OC(F)(F)F)cc2)n1 [Cpd 221, 2-(2-methyl-1H-benzimidazol-1-yl)-N-[4-(trifluoromethoxy)phenyl]pyrimidine-4,6-diamine] | 100 to 3000
Cc1nc2ccc(C#N)cc2n1-c1nc(N)c(F)c(Nc2ccc(C(F)(F)F)cc2)n1 [Cpd 222, 1-(4-amino-5-fluoro-6-{[4-(trifluoromethyl)phenyl]amino}pyrimidin-2-yl)-2-methyl-1H-benzimidazole-6-carbonitrile] | 100 to 3000
Cc1nc2ccc(C#N)cc2n1-c1nc(N)c(F)c(Nc2ccc(OC(F)F)cc2)n1 [Cpd 223, 1-(4-amino-6-{[4-(difluoromethoxy)phenyl]amino}-5-fluoropyrimidin-2-yl)-2-methyl-1H-benzimidazole-6-carbonitrile] | 100 to 3000
Cc1ccc(Nc2nc(-n3c(C)nc4ccc(C#N)cc43)nc(N)c2F)cc1 [Cpd 224] | 10 to 100
COc1ccc(Nc2nc(-n3c(C)nc4ccc(C#N)cc43)nc(N)c2F)cc1 [Cpd 225, 1-{4-amino-5-fluoro-6-[(4-methoxyphenyl)amino]pyrimidin-2-yl}-2-methyl-1H-benzimidazole-6-carbonitrile] | 10 to 100
Cc1nc2cc(C#N)ccc2n1-c1nc(N)c(F)c(Nc2ccc(OC(F)F)cc2)n1 [Cpd 226, 1-(4-amino-6-{[4-(difluoromethoxy)phenyl]amino}-5-fluoropyrimidin-2-yl)-2-methyl-1H-benzimidazole-5-carbonitrile] | 100 to 3000
Cc1ccc(Nc2nc(-n3c(C)nc4cc(C#N)ccc43)nc(N)c2F)cc1 [Cpd 227, 1-{4-amino-5-fluoro-6-[(4-methylphenyl)amino]pyrimidin-2-yl}-2-methyl-1H-benzimidazole-5-carbonitrile] | 10 to 100
COc1ccc(Nc2nc(-n3c(C)nc4cc(C#N)ccc43)nc(N)c2F)cc1 [Cpd 228] | 10 to 100
Cc1nc2cc(C#N)ccc2n1-c1nc(N)c(F)c(Nc2ccc(C(F)(F)F)cc2)n1 [Cpd 229, 1-(4-amino-5-fluoro-6-{[4-(trifluoromethyl)phenyl]amino}pyrimidin-2-yl)-2-methyl-1H-benzimidazole-5-carbonitrile] | 100 to 3000
Cc1nc2cc(C#N)ccc2n1-c1nc(N)c(F)c(Nc2ccc(Cl)cc2)n1 [Cpd 230, 1-{4-amino-6-[(4-chlorophenyl)amino]-5-fluoropyrimidin-2-yl}-2-methyl-1H-benzimidazole-5-carbonitrile] | 100 to 3000

Reference: US11180483B2, “Substituted reverse pyrimidine Bmi-1 inhibitors” (PTC Therapeutics, Inc., priority 2012, dated 2021)
